Source: patent publication US7892764B2, “System for seizure suppression” (priority 2006, dated 2011)

Experiments:
acute hippocampal slices = assay: Low Mg2+-induced injury of acute hippocampal slices, LDH release; format: cell-based; conditions: aCSF without Mg2+ plus 100 μM amiloride for 2 hr, medium collected 6 hr after incubation
Method: To determine whether ASIC blockade affects seizure-induced neuronal injury, we tested the effect of ASIC blockade on low Mg^2+-induced injury of acute hippocampal slices. 400 μm-thick coronal slices were cut and placed on a Millipore membrane in 6-well plates (2 slices in each well). Slices were randomly divided into three groups treated with the following different solutions (for 2 hr): oxygenated aCSF with normal Mg^2+; oxygenated aCSF without Mg^2+; oxygenated aCSF without Mg^2+ plus 100 μM amiloride. 100 μL medium was collected from each slice 6 hr following the incubation for the measurement of lactate dehydrogenase (LDH). The LDH value was then normalized to the maximal releasable LDH to give % of cell death. With aCSF containing normal Mg^2+, 6.2±0.9% of maximal LDH release was recorded. In the absence of Mg^2+, this value was increased to 13.0±2.2%. Addition of aniloride decreased relative LDH release to 6.0±0.4% (n=3).
LDH Assay. Lactate dehydrogenase (LDH) is a stable cytoplasmic enzyme present in all cells. […] LDH assays were performed using the Cytotoxicity Detection Kit (Cat#1644793, Roche Molecular Biochemicals) and a spectrophotometric mutiwell plate reader (SPECTRAmax, Molecular Devices). […] Absorbance at OD490 nm was measured 30 min after the reaction. Absorbance at a reference wavelength (OD620 nm) was subtracted from the measurement.

C57BL/6 mice = assay: In vivo kainic acid (KA)-induced seizure model, EEG and TUNEL staining; set-up: species or system mouse
Method: In an in vivo model of epilepsy (Araki et al., 2002), WT and ASIC1^−/− C57BL/6 mice. 20-25 g, had unilateral microinjection of kainic acid (KA) into the basolateral amygdala nucleus. […] Identical KA injection in ASIC1^−/− mice produced attenuated polyspike EEG activity (total duration: 109.8±30.8 sec, n=6, p<0.01 versus WT control, FIG. 8D).
TUNEL staining. Following cryostat sectioning, slices were air-dried, fixed in 10% formalin for 15 min, washed three times in PBS, permeabilized in 3% Triton X-100 for 20 min, and washed three times in PBS. Slices were subsequently incubated with a reaction mixture that contained FITC-dUTP and 300 U/mL terminal deoxy-transferase (TdT) for 90 min at 37° C. Cultures were then viewed with a fluorescent microscope at an excitation/emission wavelength of 500/550 nm (green) for FITC-TUNEL labeled cells.
Intracerebroventricular injection in mice. The procedure was performed as described in our previous studies (Pignataro et al., 2007; Xiong et al., 2004). A burr hole was drilled through the skull and a cannula inserted in the right lateral ventricle. The cannula was inserted stereotactically at 0.5 mm posterior, 1.0 mm lateral, and 3.0 mm ventral to the bregma, 0.5 μL of aCSF, amiloride, or PcTX1 was infused 60 min before KA injection.
In vivo KA-induced seizure model. A KA-induced in vivo seizure model was implemented as described in our previous studies (Araki et al., 2002). The protocol for seizure-induction in vivo in mice was approved by the Institutional Animal Care and Use Committee of Legacy Research. Adult male wild-type and ASIC1^−/− mice with genomic background of C57BL/6, 20-25 g in weight, were used for seizure induction by unilateral microinjection of KA into the basolateral amygdala nucleus based on stereotactic coordinates (AP −0.94 mm, L −2.85 mm, and V −3.75 mm relative to the Bregma). After anesthesia and catheterization of the femoral vein, animals were placed in a stereotactic frame modified with a headpiece compatible for the mouse (Kopf Instruments) and kept under anesthesia using a mixture of 68.5% N2O, 30% O2, and 1.5% isoflurane. Rectal body temperature was kept at 37±1° C. during and after the operation using either a heating pad or heating lamp (Harvard Instruments, Holiiston, Mass.). Using dental cement (Plastics One, Inc.), three skull-mounted recording electrodes were affixed to mice (Plastics One, Inc., Roanoke, Va.) and a 26-gauge steel guide cannula over the intact dura. […] The EEG was monitored for 30 min using a Grass Electroencephalogram (Model 8-16), and lorazepam (6 mg/kg, i.p.) Was then administered to terminate seizures. The EEG was further monitored for up to 30 min to ensure seizure cessation. The duration of polyspike (type 4) EEG activity for each mouse was calculated blind offline. […]

[1] = icv 0.5 μL aCSF containing PcTX1 500 ng/mL, 60 min before KA
[2] = icv PcTX1 500 ng/mL, 24 hr after KA injection

Compound	relative LDH release (% of maximal releasable LDH, cell death) (acute hippocampal slices) [%]	duration of polyspike (type-4) EEG activity in 30 min (C57BL/6 mice; [1]) [s]	mice showing polyspike EEG activity (C57BL/6 mice; [1])	average TUNEL positive cells in CA3 (C57BL/6 mice; [2])	mice showing any CA3 injury (C57BL/6 mice; [2])
NC(N)=NC(=O)c1nc(Cl)c(N)nc1N [amiloride, 3,5-diamino-6-chloro-N(diaminomethylidene)pyrazine-2-carboxamide]	6.0±0.4	–	–	–	–
Psalmotoxin 1 [PcTX1]	–	128.3 ± 60.3	two out of six	21.8±14.1	two out of six
